Laboratory results reported in patent US10995099B2, “Compounds and their uses as ACC inhibitors” (NANJING RUIJIE PHARMATECH CO., LTD., priority 2017, dated 2021).
Like-named read-outs stand apart in the source and are kept apart here.

How the values were obtained:
ACC2 = ACC2 (Homo sapiens (Human), UniProt O00763); assay: In vitro ACC inhibition assay (ADP-Glo), ACC2; format: biochemical
Method: (§1) Compounds of the present invention were evaluated in an in vitro ACC inhibition assay as described by Harwood, et al, 2003, the entirety of which is incorporated herein by reference.
(§2) In Vitro Acetyl-CoA Carboxylase (ACC) Inhibition Assay
(§3) An exemplary procedure for the in vitro ACC inhibition assay, which can be used to determine the inhibitory action of compounds of the invention toward either ACC1 or ACC2, follows. The ADP-Glo™ Kinase Assay kit from Promega was used. The ADP-Glo™ Kinase Assay is a luminescent ADP detection assay to measure enzymatic activity by quantifying the amount of ADP produced during an enzyme reaction. The assay is performed in two steps; first, after the enzyme reaction, an equal volume of ADP-Glo™ Reagent is added to terminate the reaction and deplete the remaining ATP. Second, the Kinase Detection Reagent is added to simultaneously convert ADP to ATP and allow the newly synthesized ATP to be measured using a luciferase/luciferin reaction. Luminescence can be correlated to ADP concentrations by using an ATP-to-ADP conversion curve. The detailed procedure is as follows. 50 μL of the compound being tested (600 uM in DMSO) was added to a 384-well dilution plate. The compound was diluted 1:3 in succession in DMSO for each row for 11 wells. 0.5 μL ACC2 working solution was added to 384-well white Optiplate assay plate. 0.5 μL diluted compound solution in each column from step 2 to assay plate, each row containing 2 replicates. […] The plates were incubated at room temperature for 15 minutes. 5 μL substrate working solution was added to each well to initiate reaction. Final ACC2 reaction concentrations consist of: 5 nM ACC2, 20 μM ATP, 20 μM acetyl-CoA, 12 mM NaHCO3, 0.01% Brij35, 2 mM DTT, 5% DMSO, test compound concentrations: 30 μM, 10 μM, 3.33 μM, 1.11 μM, 0.37 μM, 0.123 μM, 0.0411 μM, 0.0137 μM, 0.00457 μM, 0.00152 μM, and 0.00051 μM. Plates were incubated at room temperature for 60 minutes. 10 μL ADP glo reagent was added. Plates were incubated at room temperature for 40 minutes. 20 μL kinase detection reagent was added. Plates were incubated at room temperature for 40 minutes, then read on a Perkin Elmer EnVision 2104 plate reader for luminescence as Relative Light Units (RLU).
(§4) Data for each concentration, as well as the positive and negative controls were averaged, and the standard deviation calculated. Percent inhibition was calculated by the formula: 100×(average negative control-compound)/(average negative control-average positive control). The IC50 for each compound was calculated by fitting the data with a non-linear regress ion equation: Y=Bottom+(Top−Bottom)/(1+10((Log IC50−X* HillSlope)), where X is the log of compound concentration and Y is percent inhibition.

HepG2 = assay: EC50 in HepG2; format: cell-based
ACC1 = ACC1 (Homo sapiens (Human), UniProt Q13085); assay: In vitro ACC inhibition assay (ADP-Glo), ACC1; format: biochemical
Method: as §1, §2, §3, §4

[1] = 5 nM ACC2, 20 μM ATP, 20 μM acetyl-CoA, read-out: IC50 (μM) ACC2
[2] = ND630 versus RJ compounds, isoform not given, read-out: IC50 (μM) ND630/RJ-cmps(%)
[3] = Homo sapiens, HepG2, read-out: EC50 (μM) HepG2
[4] = HepG2, read-out: EC50 (μM) HepG2
[5] = ND630 versus RJ compounds, read-out: EC50 (μM) ND630/RJ-cmps(%)

Sequence of ACC2 (O00763 whole entry, species assumed): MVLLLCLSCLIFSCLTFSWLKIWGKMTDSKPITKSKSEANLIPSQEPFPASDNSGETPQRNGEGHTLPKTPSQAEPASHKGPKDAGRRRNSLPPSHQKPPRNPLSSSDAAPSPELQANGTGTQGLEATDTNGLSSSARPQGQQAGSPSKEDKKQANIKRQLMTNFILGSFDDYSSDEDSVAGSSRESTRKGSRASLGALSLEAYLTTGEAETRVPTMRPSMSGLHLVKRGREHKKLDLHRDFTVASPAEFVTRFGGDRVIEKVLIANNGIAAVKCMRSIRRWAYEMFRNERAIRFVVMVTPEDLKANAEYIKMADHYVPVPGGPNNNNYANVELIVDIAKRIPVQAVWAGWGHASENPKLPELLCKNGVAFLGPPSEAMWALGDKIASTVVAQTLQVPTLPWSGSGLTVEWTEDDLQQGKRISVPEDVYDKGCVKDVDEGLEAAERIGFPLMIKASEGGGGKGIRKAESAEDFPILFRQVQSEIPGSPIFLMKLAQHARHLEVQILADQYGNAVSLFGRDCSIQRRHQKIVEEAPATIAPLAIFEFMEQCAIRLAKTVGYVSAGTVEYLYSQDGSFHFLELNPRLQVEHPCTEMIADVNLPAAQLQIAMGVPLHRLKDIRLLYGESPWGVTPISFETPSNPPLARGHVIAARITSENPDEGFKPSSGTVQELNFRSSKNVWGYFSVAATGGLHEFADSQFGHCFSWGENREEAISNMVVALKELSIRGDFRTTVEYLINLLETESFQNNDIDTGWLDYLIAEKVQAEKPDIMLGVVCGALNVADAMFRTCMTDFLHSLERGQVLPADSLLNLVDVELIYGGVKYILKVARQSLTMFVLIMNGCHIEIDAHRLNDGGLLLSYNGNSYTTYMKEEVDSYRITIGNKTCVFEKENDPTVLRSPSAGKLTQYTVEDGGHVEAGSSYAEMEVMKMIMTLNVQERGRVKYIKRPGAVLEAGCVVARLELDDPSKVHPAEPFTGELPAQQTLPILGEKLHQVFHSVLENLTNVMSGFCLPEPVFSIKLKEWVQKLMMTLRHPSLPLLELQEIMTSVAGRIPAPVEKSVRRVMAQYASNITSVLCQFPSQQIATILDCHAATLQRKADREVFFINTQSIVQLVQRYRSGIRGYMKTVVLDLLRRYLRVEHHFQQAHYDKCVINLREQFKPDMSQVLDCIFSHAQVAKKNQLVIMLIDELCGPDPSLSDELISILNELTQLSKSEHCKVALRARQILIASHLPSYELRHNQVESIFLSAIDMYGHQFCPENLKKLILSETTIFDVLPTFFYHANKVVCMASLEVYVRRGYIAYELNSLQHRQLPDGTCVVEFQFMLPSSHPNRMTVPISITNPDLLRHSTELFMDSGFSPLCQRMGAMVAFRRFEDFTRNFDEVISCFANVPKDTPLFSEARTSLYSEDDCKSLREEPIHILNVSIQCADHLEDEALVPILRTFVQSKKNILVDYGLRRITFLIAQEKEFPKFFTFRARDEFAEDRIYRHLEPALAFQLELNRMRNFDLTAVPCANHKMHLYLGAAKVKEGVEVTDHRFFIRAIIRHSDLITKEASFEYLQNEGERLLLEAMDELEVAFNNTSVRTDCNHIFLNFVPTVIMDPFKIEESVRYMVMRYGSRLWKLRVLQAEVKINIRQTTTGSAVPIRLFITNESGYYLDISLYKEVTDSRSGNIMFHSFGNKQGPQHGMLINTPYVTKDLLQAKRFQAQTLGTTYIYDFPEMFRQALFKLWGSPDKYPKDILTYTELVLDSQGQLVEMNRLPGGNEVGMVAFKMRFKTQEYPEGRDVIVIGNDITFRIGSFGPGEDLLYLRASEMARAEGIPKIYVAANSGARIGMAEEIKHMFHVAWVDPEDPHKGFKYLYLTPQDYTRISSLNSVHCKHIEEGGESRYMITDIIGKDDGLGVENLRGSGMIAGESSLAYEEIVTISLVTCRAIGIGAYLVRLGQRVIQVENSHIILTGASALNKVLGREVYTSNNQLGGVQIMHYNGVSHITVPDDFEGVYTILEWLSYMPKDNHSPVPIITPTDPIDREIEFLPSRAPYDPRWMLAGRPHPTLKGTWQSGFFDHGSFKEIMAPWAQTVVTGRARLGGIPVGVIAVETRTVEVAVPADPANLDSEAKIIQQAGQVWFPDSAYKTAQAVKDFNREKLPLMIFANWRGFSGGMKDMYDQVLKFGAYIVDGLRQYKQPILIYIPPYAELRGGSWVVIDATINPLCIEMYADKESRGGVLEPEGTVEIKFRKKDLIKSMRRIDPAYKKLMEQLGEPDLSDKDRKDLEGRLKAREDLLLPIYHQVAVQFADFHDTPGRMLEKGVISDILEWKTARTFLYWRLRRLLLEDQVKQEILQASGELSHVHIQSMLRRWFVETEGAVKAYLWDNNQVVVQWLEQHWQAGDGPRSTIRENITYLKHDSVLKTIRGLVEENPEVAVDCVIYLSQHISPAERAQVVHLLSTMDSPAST

| IC50 (ACC2; [1]) [µM] | IC50 (ACC2; [2]) [µM] | EC50 (HepG2; [3]) [µM] | EC50 (HepG2; Homo sapiens, ND630 versus RJ compounds, read-out: EC50 (μM) ND630/RJ-cmps(%)) [µM] | EC50 (HepG2; [4]) [µM] | EC50 (HepG2; [5]) [µM] | IC50 (ACC1) [µM] | SMILES |
| --- | --- | --- | --- | --- | --- | --- | --- |
| < 0.01 | 0.003 to 0.005 | – | – | 0.1 to 1 | > 1 | – | COc1ccccc1C(Cn1c(=O)n(C2(C(N)=O)CCCC2)c(=O)c2c(C)c(Br)sc21)OC1CCOCC1 (stereo not shown) [Example 48] |
| < 0.01 | 0.003 to 0.005 | – | – | 0.1 to 1 | 0.1 to 1 | – | COc1ccccc1[C@H](Cn1c(=O)n(C2(C(=O)O)CC2)c(=O)c2c(C)c(-n3nccn3)sc21)OC1CCOCC1 [Example 49] |
| 0.01 to 0.1 | 0.003 to 0.005 | – | – | – | 0.1 to 1 | – | CNC(=O)C1(n2c(=O)c3c(C)c(Br)sc3n(CC(OC3CCOCC3)c3ccccc3OC)c2=O)CCCC1 (stereo not shown) [Example 50] |
| 0.1 to 1 | 0.005 to 0.01 | – | – | – | – | – | COc1ccccc1[C@H](Cn1c(=O)n(C2(C(=O)O)CC2)c(=O)c2c(C)c(-n3cncn3)sc21)OC1CCOCC1 [Example 56] |
| 0.1 to 1 | 0.005 to 0.01 | – | – | 0.1 to 1 | – | – | CNC(=O)C1(n2c(=O)c3cc(Br)sc3n(C[C@H](OC3CCOCC3)c3ccccc3OC)c2=O)CC1 [Example 57] |
| 0.01 to 0.1 | > 0.01 | – | – | – | – | 0.01 to 0.05 | COc1ccccc1[C@H](Cn1c(=O)n(C2(CC(=O)O)CC2)c(=O)c2c(C)c(Br)sc21)OC1CCOCC1 [Example 59] |
| 0.01 to 0.1 | > 0.01 | – | – | – | – | 0.01 to 0.05 | COc1ccccc1[C@H](Cn1c(=O)n(C2(CC(N)=O)CC2)c(=O)c2c(C)c(Br)sc21)OC1CCOCC1 [Example 60] |
| 0.01 to 0.1 | – | – | – | > 1 | – | – | COCCNC(=O)CC1(n2c(=O)c3c(C)c(-c4ncco4)sc3n(CC(OC3CCOCC3)c3ccccc3OC)c2=O)CC1 (stereo not shown) [Example 65] |
| 0.01 to 0.1 | > 0.01 | – | – | – | – | 0.001 to 0.01 | COc1ccccc1[C@H](Cn1c(=O)n(C(C)(C)C(=O)OC(C)(C)C)c(=O)c2c(C)c(-c3ncco3)sc21)OC1CCOCC1 [Example 66] |
| 0.1 to 1 | > 0.01 | – | – | – | – | > 0.05 | COC(=O)C1(n2c(=O)c3c(C)c(Br)sc3n(C[C@H](OC3CCOCC3)c3ccccc3OC)c2=O)CCC1 [Example 67] |
| 0.1 to 1 | > 0.01 | – | – | – | – | > 0.05 | COc1ccccc1[C@H](Cn1c(=O)n(C(C)(C)C(=O)OC(C)(C)C)c(=O)c2c(C)c(Br)sc21)OC1CCOCC1 [Example 68] |
| 0.01 to 0.1 | 0.005 to 0.01 | – | – | > 1 | > 1 | – | COc1ccccc1[C@H](Cn1c(=O)n(C2(C(=O)O)CC2)c(=O)c2c(C)c(-c3cnco3)sc21)OC1CCOCC1 [Example 80] |
| 0.01 to 0.1 | 0.005 to 0.01 | – | – | 0.01 to 0.1 | > 1 | – | COc1ccccc1C(Cn1c(=O)n(C2(CC(=O)O)CC2)c(=O)c2c(C)c(-c3ncco3)sc21)OC1CCOCC1 (stereo not shown) [Example 82] |

The next lines start with the compound.

| SMILES | IC50 (ACC2; [1]) [µM] | IC50 (ACC2; [2]) [µM] | EC50 (HepG2; [3]) [µM] | EC50 (HepG2; Homo sapiens, ND630 versus RJ compounds, read-out: EC50 (μM) ND630/RJ-cmps(%)) [µM] | EC50 (HepG2; [4]) [µM] | EC50 (HepG2; [5]) [µM] | IC50 (ACC1) [µM] |
| --- | --- | --- | --- | --- | --- | --- | --- |
| COc1ccccc1C(Cn1c(=O)n(C2(C(=O)O)CC2)c(=O)c2c(C)c(-c3ncco3)sc21)OC1CCOCC1 (stereo not shown) [Example 3, 1-[1-[2-(2-methoxyphenyl)-2-tetrahydropyran-4-yloxy-ethyl]-5-methyl-6-oxazol-2-yl-2,4-dioxo-thieno[2,3-d]pyrimidin-3-yl]cyclopropanecarboxylic acid] | 0.01 to 0.1 | 0.005 to 0.01 | 0.01 to 0.1 | > 1 | – | – | – |
| COc1ccccc1C(Cn1c(=O)n(C2(C(=O)O)CC2)c(=O)c2c(C)c(Br)sc21)OC1CCOCC1 (stereo not shown) [Example 4, 1-(6-bromo-1-(2-(2-methoxyphenyl)-2-(tetrahydro-2H-pyran-4-yloxy)ethyl)-5-methyl-2,4-dioxo-1,2-dihydrothieno[2,3-d]pyrimidin-3(4H)-yl)cyclopropanecarboxylic Acid] | 0.01 to 0.1 | 0.005 to 0.01 | 0.01 to 0.1 | – | – | – | – |
| COc1ccccc1[C@H](Cn1c(=O)n(C(C)(C)C(=O)O)c(=O)c2c(C)c(-c3ncco3)sc21)OC1CCOCC1 [Example 8] | 0.01 to 0.1 | 0.005 to 0.01 | – | – | > 1 | > 1 | – |
| COc1ccccc1[C@H](Cn1c(=O)n(C(C)(C)C(=O)O)c(=O)c2c(C)c(-c3nnco3)sc21)OC1CCOCC1 [Example 9] | 0.1 to 1 | 0.005 to 0.01 | – | – | > 1 | > 1 | – |
| COc1ccccc1C(Cn1c(=O)n(C(C)(C)C(=O)O)c(=O)c2c(C)c(Br)sc21)OC1CCOCC1 (stereo not shown) [Example 10] | 0.01 to 0.1 | 0.005 to 0.01 | – | – | 0.1 to 1 | > 1 | – |
| COc1ccccc1C(Cn1c(=O)n(C(C)(C)C(=O)O)c(=O)c2cc(C)c(-c3ncco3)cc21)OC1CCOCC1 (stereo not shown) [Example 11] | > 1 | 0.005 to 0.01 | – | – | – | 0.01 to 0.1 | – |
| COc1ccccc1C(Cn1c(=O)n(C(C)(C)C(=O)O)c(=O)c2cc(C)c(Br)cc21)OC1CCOCC1 (stereo not shown) [Example 12] | > 1 | 0.005 to 0.01 | – | – | – | 0.01 to 0.1 | – |
| COc1ccccc1C(O)Cn1c(=O)n(C(C)(C)C(=O)O)c(=O)c2cc(C)c(-c3ncco3)cc21 (stereo not shown) [Example 13] | > 1 | 0.005 to 0.01 | – | – | – | 0.01 to 0.1 | – |
| COc1ccccc1[C@H](Cn1c(=O)n(C2(C(=O)O)CC2)c(=O)c2c(C)csc21)OC1CCOCC1 [Example 17] | > 1 | 0.005 to 0.01 | – | – | – | – | – |
| COc1ccccc1C(Cn1c(=O)n(C2(CC(=O)N3CCOCC3)CC2)c(=O)c2c(C)c(Br)sc21)OC1CCOCC1 (stereo not shown) [Example 23] | 0.1 to 1 | 0.003 to 0.005 | – | – | – | 0.1 to 1 | – |
| COc1ccccc1C(Cn1c(=O)n(C2(C(=O)O)CCCC2)c(=O)c2c(C)c(-c3ncco3)sc21)OC1CCOCC1 (stereo not shown) [Example 25] | < 0.01 | 0.003 to 0.005 | – | – | – | 0.1 to 1 | – |
| COc1ccccc1C(Cn1c(=O)n(C2(C(=O)O)CCC2)c(=O)c2c(C)c(-c3ncco3)sc21)OC1CCOCC1 (stereo not shown) [Example 26] | < 0.01 | 0.003 to 0.005 | – | – | – | 0.1 to 1 | – |
| COCc1sc2c(c1C)c(=O)n(C1(C(=O)O)CCCC1)c(=O)n2C[C@H](CC1CCOCC1)c1ccccc1OC [Example 27] | > 1 | 0.003 to 0.005 | – | – | – | 0.1 to 1 | – |
| COc1ccccc1[C@@H](Cn1c(=O)n(C2(C(=O)O)CC2)c(=O)c2c(C)c(-c3ncco3)sc21)OC1CCOCC1 [Example 28] | 0.1 to 1 | 0.003 to 0.005 | – | – | – | 0.1 to 1 | – |
| COc1ccccc1[C@@H](Cn1c(=O)n(C2(C(=O)O)CC2)c(=O)c2c(C)c(Br)sc21)OC1CCOCC1 [Example 32] | 0.1 to 1 | 0.003 to 0.005 | – | – | – | 0.1 to 1 | – |
| COc1ccccc1[C@H](Cn1c(=O)n(C2(C(=O)O)CCC2)c(=O)c2c(C)c(CN)sc21)OC1CCOCC1 [Example 34] | > 1 | 0.003 to 0.005 | – | – | – | 0.1 to 1 | – |
| COc1ccccc1[C@H](Cn1c(=O)n(C2(C(=O)O)CC2)c(=O)c2cc(-c3ncco3)ccc21)OC1CCOCC1 [Example 39] | > 1 | 0.005 to 0.01 | – | – | 0.1 to 1 | 0.01 to 0.1 | – |
| COc1ccccc1C(Cn1c(=O)n(C2(C(N)=O)CCCC2)c(=O)c2c(C)c(-c3ncco3)sc21)OC1CCOCC1 (stereo not shown) [Example 43] | < 0.01 | 0.005 to 0.01 | – | – | < 0.01 | > 1 | 0.001 to 0.01 |
| CNC(=O)C1(n2c(=O)c3c(C)c(-c4ncco4)sc3n(CC(OC3CCOCC3)c3ccccc3OC)c2=O)CCCC1 (stereo not shown) [Example 44] | 0.01 to 0.1 | 0.005 to 0.01 | – | – | < 0.01 | > 1 | 0.001 to 0.01 |
| COc1ccccc1[C@H](Cn1c(=O)n(C2(C(=O)O)CC2)c(=O)c2c(C)c(-n3cccn3)sc21)OC1CCOCC1 [Example 45] | < 0.01 | 0.005 to 0.01 | – | – | 0.1 to 1 | > 1 | – |
| COc1ccccc1C(Cn1c(=O)n(C2(C(N)=O)CC2)c(=O)c2c(C)c(-c3ncco3)sc21)OC1CCOCC1 (stereo not shown) [Example 46] | 0.01 to 0.1 | 0.005 to 0.01 | – | – | 0.01 to 0.1 | > 1 | 0.001 to 0.01 |
